Experimental findings from US20260042764A1, “COMPOSITIONS AND METHODS FOR INHIBITION OF KRAS” (TheRas, Inc., priority 2022, published 2026) are described below.

Experiment [1] addresses T1, Avi-KRAS G12R (1-169) GppNHp/RAF1 RBD-3xFLAG (52-151) (Homo sapiens, UniProt P01116, G12R).
T1 construct: Avi-KRAS G12R (1-169)
Kind of experiment: Raf1-KRAS G12R-GppNHP disruption HTRF assay (Biological Example 1). To be noted: KRAS G12R, GppNHp-loaded; class symbols. The experiment is classed as binding. An outline of the steps: (§1)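 First, protein mix in Tris pH 7.5 buffer with NaCl, MgCl2, BSA, Tween and 10% DMSO is incubated 1 h at room temperature. Next, reagent mix is added and incubated a further 1 h at room temperature. Finally, HTRF is read and activity normalized to DMSO.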

Experiment [2] addresses T2, Avi-KRAS G12D (1-169) GppNHp/RAF1 RBD-3xFLAG (52-151) (Homo sapiens, UniProt P01116, G12D).
T2 construct: Avi-KRAS G12D (1-169)
Kind of experiment: Raf1-KRAS G12D-GppNHP disruption HTRF assay (Biological Example 1). The class given is binding. The conditions noted are these: KRAS G12D, GppNHp-loaded; class symbols. An outline of the steps:
as §1

Experiment [3] deals with T3, Avi-KRAS G12V (1-169) GppNHp/RAF1 RBD-3xFLAG (52-151) (Homo sapiens, UniProt P01116, G12V).
T3 construct: Avi-KRAS G12V (1-169)
T3 sequence (P01116 1-169 isoform P01116-2 G12V): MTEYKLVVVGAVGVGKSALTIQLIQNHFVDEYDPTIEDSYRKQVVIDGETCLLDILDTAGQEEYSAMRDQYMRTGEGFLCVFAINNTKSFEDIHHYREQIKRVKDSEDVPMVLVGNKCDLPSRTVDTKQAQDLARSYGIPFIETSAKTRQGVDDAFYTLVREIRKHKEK
The experiment can be described thus: Raf1-KRAS G12V-GppNHP disruption HTRF assay (Biological Example 1). The experiment is classed as binding. To be noted: KRAS G12V, GppNHp-loaded; class symbols. An outline of the steps: as §1
(In general: In TR-FRET formats the signal depends on donor and acceptor labels being close together.)

In the next experiment the test system is SW620 cells (KRAS G12V). The experiment can be described thus: Cell-based pERK HTRF assay in SW620 cell (Biological Example 4). The conditions noted are these: Homo sapiens, SW-620, SW620 (KRAS G12V) cells, pERK HTRF; class symbols. An outline of the steps: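 This assay measures inhibition of ERK phosphorylation downstream of KRAS G12V in intact SW620 cells. Compounds are applied for 4 h over nine half-log concentrations starting at 1 μM, and pERK is quantified by HTRF.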

A further experiment concerns GP2d cells (KRAS G12D). The experiment can be described thus: Cell-based pERK HTRF assay in GP2d cell (Biological Example 2). To be noted: GP2d, GP2d (KRAS G12D) cells, pERK HTRF; class symbols. An outline of the steps: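 60 min compound, 0.25% DMSO, 9-pt half-log curve from 1 μM or 100 nM; DMEM/10% FBS.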
Experiment [4] addresses T4, Avi-KRAS WT (1-169) GppNHp/RAF1 RBD-3xFLAG (52-151) (Homo sapiens, UniProt P01116).
T4 construct: Avi-KRAS WT (1-169)
The experiment can be described thus: Raf1-KRAS WT-GppNHP disruption HTRF assay (Biological Example 1). The class given is binding. To be noted: KRAS WT, GppNHp-loaded; class symbols. An outline of the steps:
as §1

T2 sequence (P01116 1-169 isoform P01116-2 G12D): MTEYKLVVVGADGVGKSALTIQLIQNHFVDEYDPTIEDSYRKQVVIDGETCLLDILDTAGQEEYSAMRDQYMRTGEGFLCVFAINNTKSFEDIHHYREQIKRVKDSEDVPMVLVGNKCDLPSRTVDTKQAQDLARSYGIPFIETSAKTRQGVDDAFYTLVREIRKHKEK
T1 sequence (P01116 1-169 isoform P01116-2 G12R): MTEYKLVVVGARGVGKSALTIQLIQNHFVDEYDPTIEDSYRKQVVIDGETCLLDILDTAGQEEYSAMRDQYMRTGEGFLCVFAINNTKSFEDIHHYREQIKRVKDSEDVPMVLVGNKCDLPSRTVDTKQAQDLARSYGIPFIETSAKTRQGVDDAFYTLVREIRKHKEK
T4 sequence (P01116 1-169 isoform P01116-2): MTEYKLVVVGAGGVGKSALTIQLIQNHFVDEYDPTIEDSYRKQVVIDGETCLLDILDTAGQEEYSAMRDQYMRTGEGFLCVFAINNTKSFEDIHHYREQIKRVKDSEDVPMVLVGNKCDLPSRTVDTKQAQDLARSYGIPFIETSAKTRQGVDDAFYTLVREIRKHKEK

In the case of `CCN(c1nc(OC[C@@]23CCCN2C[C@H](F)C3)nc2c(F)c(-c3ccc(F)c4sc(N)c(C#N)c34)c(C(F)(F)F)cc12)[C@H]1C[C@@H](C)N(C(=O)[C@H](C)OC)C1` (atropisomer, axis not shown) [Compound 753], the IC50 (in general, the point on the concentration scale where inhibition reaches its midpoint) is 100 to 1000 nM in experiment [1]; 100 to 1000 nM in experiment [2]; 100 to 1000 nM in experiment [3]; below 100 nM in the experiment with SW620 cells (KRAS G12V); below 100 nM with GP2d cells (KRAS G12D); 100 to 1000 nM in experiment [4].
As for `CN(C)C(=O)N1CC[C@H](N(C)c2nc(OC[C@@]34CCCN3C[C@H](F)C4)nc3c(F)c(-c4ccc(F)c5sc(N)c(C#N)c45)c(C(F)(F)F)cc23)C1` (atropisomer, axis not shown) [Compound 755], the IC50 in experiment [1] is below 100 nM; in experiment [2], below 100 nM; in experiment [3] it was 100 to 1000 nM; with SW620 cells (KRAS G12V), below 100 nM; in the experiment on GP2d cells (KRAS G12D), below 100 nM; in experiment [4] it was 100 to 1000 nM.
Consider `COC(=O)N1CC[C@H](N(C)c2nc(OC[C@@]34CCCN3C[C@H](F)C4)nc3c(F)c(-c4ccc(F)c5sc(N)c(C#N)c45)c(C(F)(F)F)cc23)C1` (atropisomer, axis not shown) [Compound 756], for which the IC50 (in experiment [1]; in experiment [2]; in experiment [3]; in the experiment on SW620 cells (KRAS G12V); in the experiment on GP2d cells (KRAS G12D); in experiment [4]) was below 100 nM in each case.
On to `CCN(c1nc(OC[C@@]23CCCN2C[C@H](F)C3)nc2c(F)c(-c3ccc(F)c4sc(N)c(C#N)c34)c(C(F)(F)F)cc12)[C@H]1C[C@H]2CN(C3CCC3)C(=O)N2C1` (atropisomer, axis not shown) [Compound 757], for which the half-maximal inhibitory concentration (IC50) (in experiment [1]; in experiment [2]; in experiment [3]; with SW620 cells (KRAS G12V); with GP2d cells (KRAS G12D); in experiment [4]) was below 100 nM throughout.
Turning to `CCOC1CN(C(=O)N2CC[C@H](N(CC)c3nc(OC[C@@]45CCCN4C[C@H](F)C5)nc4c(F)c(-c5ccc(F)c6sc(N)c(C#N)c56)c(C(F)(F)F)cc34)C2)C1` (atropisomer, axis not shown) [Compound 758], the IC50 (in experiment [1]; in experiment [2]; in experiment [3]; with SW620 cells (KRAS G12V); with GP2d cells (KRAS G12D); in experiment [4]) was below 100 nM each time.
Regarding `[2H]C1([2H])OC(=O)N2C[C@@H](N(CC)c3nc(OC[C@@]45CCCN4C[C@H](F)C5)nc4c(F)c(-c5ccc(F)c6sc(N)c(C#N)c56)c(C(F)(F)F)cc34)C[C@H]21` (atropisomer, axis not shown) [Compound 760], the 50% inhibitory concentration (IC50) (in experiment [1]; in experiment [2]; in experiment [3]; in the experiment with SW620 cells (KRAS G12V); in the experiment on GP2d cells (KRAS G12D); in experiment [4]) was below 100 nM each time.
For `CCN(c1nc(OC[C@@]23CCCN2C[C@H](F)C3)nc2c(F)c(-c3ccc(F)c4sc(N)c(C#N)c34)c(C(F)(F)F)cc12)[C@H]1CCN(C(=O)N2CC(OC)C2)[C@@H]1C` (atropisomer, axis not shown) [Compound 761], the 50% inhibitory concentration (IC50) (in experiment [1]; in experiment [2]; in experiment [3]; in the experiment with SW620 cells (KRAS G12V); in the experiment on GP2d cells (KRAS G12D); in experiment [4]) was below 100 nM throughout.
On to `CCN1C[C@@H]2C[C@H](N(CC)c3nc(OC[C@@]45CCCN4C[C@H](F)C5)nc4c(F)c(-c5ccc(F)c6sc(N)c(C#N)c56)c(C(F)(F)F)cc34)CN2C1=O` (atropisomer, axis not shown) [Compound 762], for which the IC50 (in experiment [1]; in experiment [2]; in experiment [3]; in the experiment with SW620 cells (KRAS G12V); with GP2d cells (KRAS G12D); in experiment [4]) was below 100 nM throughout.
For the compound `CCN(c1nc(OC[C@@]23CCCN2C[C@H](F)C3)nc2c(F)c(-c3ccc(F)c4sc(N)c(C#N)c34)c(C(F)(F)F)cc12)[C@H]1C[C@H](C)N(C(=O)c2ccon2)C1` (atropisomer, axis not shown) [Compound 766], the IC50 (in experiment [1]; in experiment [2]; in experiment [3]; with SW620 cells (KRAS G12V); in the experiment on GP2d cells (KRAS G12D); in experiment [4]) was below 100 nM each time.
Consider `COC(=O)N1CC[C@H](N(c2nc(OC[C@@]34CCCN3C[C@H](F)C4)nc3c(F)c(-c4ccc(F)c5sc(N)c(C#N)c45)c(C(F)(F)F)cc23)C2CC2)C1` (atropisomer, axis not shown) [Compound 767], for which the IC50 in experiment [1] was 100 to 1000 nM; in experiment [2], below 100 nM; in experiment [3], 100 to 1000 nM; in the experiment on SW620 cells (KRAS G12V), below 100 nM; with GP2d cells (KRAS G12D), below 100 nM; in experiment [4], 100 to 1000 nM.
With `CCN(c1nc(OC[C@@]23CCCN2C[C@H](F)C3)nc2c(F)c(-c3ccc(F)c4sc(N)c(C#N)c34)c(C(F)(F)F)cc12)[C@H]1CCN(C(=O)[C@@H]2C[C@H]2F)C1` (atropisomer, axis not shown) [Compound 768], the half-inhibitory concentration (IC50) (in experiment [1]; in experiment [2]; in experiment [3]; in the experiment with SW620 cells (KRAS G12V); in the experiment on GP2d cells (KRAS G12D); in experiment [4]) was below 100 nM in each case.
On to `CCN(c1nc(OC[C@@]23CCCN2C[C@H](F)C3)nc2c(F)c(-c3ccc(F)c4sc(N)c(C#N)c34)c(C(F)(F)F)cc12)[C@H]1CCN(C(=O)[C@@H]2CCCCO2)C1` (atropisomer, axis not shown) [Compound 769], for which the IC50 (in experiment [1]; in experiment [2]; in experiment [3]; in the experiment with SW620 cells (KRAS G12V); with GP2d cells (KRAS G12D); in experiment [4]) was below 100 nM throughout.
For the compound `CCN(c1nc(OC[C@@]23CCCN2C[C@H](F)C3)nc2c(F)c(-c3ccc(F)c4sc(N)c(C#N)c34)c(C(F)(F)F)cc12)[C@H]1CCN(C(=O)[C@H]2CCCCO2)C1` (atropisomer, axis not shown) [Compound 770], the IC50 (in experiment [1]; in experiment [2]; in experiment [3]; in the experiment with SW620 cells (KRAS G12V); in the experiment on GP2d cells (KRAS G12D); in experiment [4]) was below 100 nM in each case.
Take `CCN(c1nc(OC[C@@]23CCCN2C[C@H](F)C3)nc2c(F)c(-c3ccc(F)c4sc(N)c(C#N)c34)c(C(F)(F)F)cc12)[C@H]1CCN(C(=O)c2cc(C)no2)C1` (atropisomer, axis not shown) [Compound 771]: the IC50 (in experiment [1]; in experiment [2]; in experiment [3]; with SW620 cells (KRAS G12V); in the experiment on GP2d cells (KRAS G12D); in experiment [4]) was below 100 nM in each case.
As to `CCN(c1nc(OC[C@@]23CCCN2C[C@H](F)C3)nc2c(F)c(-c3ccc(F)c4sc(N)c(C#N)c34)c(C(F)(F)F)cc12)[C@H]1CCN(C(=O)[C@H]2CC23CC3)C1` (atropisomer, axis not shown) [Compound 772], the IC50 (in experiment [1]; in experiment [2]; in experiment [3]; in the experiment with SW620 cells (KRAS G12V); in the experiment with GP2d cells (KRAS G12D); in experiment [4]) was below 100 nM each time.
